# Patent US9414596B2, “Metalloenzyme inhibitor compounds” (Viamet Pharmaceuticals, Inc., priority 2012, dated 2016)
# Test system: C. albicans
# Experiment: Minimum Inhibitory Concentration (MIC) (C. albicans), CLSI M27-A2
# Format: cell-based
# Conditions: Candida albicans, 48 h, C. albicans; approximately 48 h at 35±1° C.; MIC = about 50% growth reduction, visual; read-out: Candida MIC Rating
# Experimental: A. Minimum Inhibitory Concentration (MIC) (C. albicans) Compounds of the present disclosure were assessed for their ability to inhibit the growth of common strains of fungus, C. albicans using a standardized procedure (CLSI M27-A2). Stock solutions of the test compounds and standards were prepared in DMSO at 1,600 μg/mL (C. albicans). Eleven, serial, one-half dilutions of compounds were prepared in 96-well plates in RPMI+MOPS. The assay concentration ranges were 8-0.001 μg/mL (C. albicans). Cell suspensions of C. albicans were prepared and added to each well at concentrations of approximately 3.7×10^3 colony-forming-units per milliliter (cfu/mL). All testing was in duplicate. The inoculated plates were incubated for approximately 48 h at 35±1° C. At the completion of incubation the wells of each plate were evaluated visually for the presence of fungal growth. […] For QC purposes C. krusei isolate ATCC 6258 (4.0×10^3 cfu/mL) was included in the VOR assay.
row,Compound,MIC
1,"CC(F)(c1ccc(-c2ccc(F)cc2)cn1)[C@](O)(Cn1cnnn1)c1ccc(F)cc1F (stereo in doubt) [Example 50, 2-(2,4-Difluorophenyl)-3-fluoro-3-(5-(4-fluorophenyl)pyridin-2-yl)-1-(1H-tetrazol-1-yl)butan-2-ol]",1.5 to 4 µg/mL
2,"O=P(O)(O)OC(Cn1cnnn1)(c1ccc(F)cc1F)C(F)(F)c1ccc(-c2ccc(OCC(F)(F)F)cc2)cn1 (stereo not shown) [Example 58, 2-(2,4-difluorophenyl)-1,1-difluoro-3-(1H-tetrazol-1-yl)-1-(5-(4-(2,2,2-trifluoroethoxy)phenyl)pyridin-2-yl)propan-2-yl dihydrogen phosphate]",< 0.5 µg/mL

# Same assay, conditions: Candida albicans, 48 h; read-out: Candida MIC Rating
row,Compound,MIC
1,"OC(Cc1cc[nH]n1)(c1ccc(F)cc1F)C(F)(F)c1ccc(-c2ccc(OC(F)(F)F)cc2)cn1 (stereo not shown) [Example 15, 2-(2,4-Difluorophenyl)-1,1-difluoro-3-(1H-pyrazol-3-yl)-1-(5-(4-(trifluoromethoxy)phenyl)-pyridin-2-yl)propan-2-ol]",< 0.5 µg/mL
2,"OC(Cn1cnnn1)(c1ccc(F)cc1F)C(F)(F)c1ccc(-c2ccc(OCC(F)(F)C(F)(F)F)cc2)cn1 (stereo not shown) [Example 12, 2-(2,4-Difluorophenyl)-1,1-difluoro-1-(5-(4-(2,2,3,3,3-pentafluoropropoxy)phenyl)pyridin-2-yl)-3-(1H-tetrazol-1-yl)propan-2-ol]",< 0.5 µg/mL

# Test system: Septoria tritici (ATCC 26517)
# Experiment: Minimum Inhibitory Concentration (MIC) (Septoria tritici), CLSI-based microdilution
# Format: cell-based
# Conditions: S. tritici ATCC 26517; seven days at 22° C. in the dark; MIC = 50% reduction in growth, visual
# Experimental: B. Minimum Inhibitory Concentration (MIC) (Septoria tritici)
# Compounds of the present disclosure were assessed for their ability to inhibit the growth of a common strain of the fungal plant pathogen Septoria tritici (ATCC 26517) using a procedure based on a Clinical and Laboratory Standards Institute (CLSI) microdilution assay protocol for filamentous fungi.
# Stock solutions of the test compounds and standards were prepared in DMSO at 6400 μg/mL. Each stock solution was used to prepare a 2-fold dilution series ranging from 16 to 0.016 μg/mL (total of 11 compound concentrations) in RPMI-1640 (Roswell Park Memorial Institute) medium containing 3-(N-morpholino)propanesulfonic acid (MOPS) buffer and 2% DMSO. A 100 μL aliquot of the dilutions was added to columns 1 (16 μg/mL compound) through 11 (0.016 μg/mL compound) of a 96-well microtiter plate. This format was replicated in a second row of the microtiter plate. Thus, each microtiter plate could include 11 concentrations of four test or control compounds replicated twice. A 100 μL aliquot of RPMI-1640/MOPS/2% DMSO medium was added to column 12 (no compound control) of the microtiter plate.
# A fresh culture of S. tritici was used to prepare a solution of approximately 5×10^4 colony-forming units per milliliter (cfu/mL) in RPMI/MOPS medium without DMSO. A 100 μL aliquot of this solution was added to all 96 wells in the microtiter plate. […] The assay plates were incubated at 22° C. for seven days in the dark without shaking.
row,Septoria MIC Rating,Compound
1,B (>0.5-1.5),"CC(F)(c1ccc(-c2ccc(OC(F)(F)F)cc2)cn1)C(O)(Cn1cnnn1)c1ccc(F)cc1F (stereo not shown) [Example 47, 2-(2,4-Difluorophenyl)-3-fluoro-1-(1H-tetrazol-1-yl)-3-(5-(4-(trifluoromethoxy)phenyl)-pyridin-2-yl)butan-2-ol]"

# Same assay, conditions: Zymoseptoria tritici, ATCC26517, 168 h, S. tritici ATCC 26517; seven days at 22° C. in the dark; MIC = 50% reduction in growth, visual; read-out: Septoria MIC Rating
row,MIC,Compound
1,< 0.5 µg/mL,"OC(Cn1cnnn1)(c1ccc(F)cc1F)C(F)(F)c1ccc(-c2ccc(SCC(F)(F)F)cc2)cn1 (stereo not shown) [Example 45, 2-(2,4-Difluorophenyl)-1,1-difluoro-3-(1H-tetrazol-1-yl)-1-(5-(4-((2,2,2-trifluoroethyl)thio)phenyl)pyridin-2-yl)propan-2-ol]"
2,0.5 to 1.5 µg/mL,"OC(Cn1cnnn1)(c1ccc(F)cc1F)C(F)(F)c1ccc(-c2ccc(OCCC(F)(F)F)cc2)cn1 (stereo not shown) [Example 44, 2-(2,4-Difluorophenyl)-1,1-difluoro-3-(1H-tetrazol-1-yl)-1-(5-(4-(3,3,3-trifluoropropoxy)phenyl)pyridin-2-yl)propan-2-ol]"
3,< 0.5 µg/mL,"OC(Cn1cnnn1)(c1ccc(F)cc1F)C(F)(F)c1ccc(-c2ccc(OCC(F)(F)F)cc2)cn1 (stereo not shown) [Example 11, 2-(2,4-Difluorophenyl)-1,1-difluoro-3-(1H-tetrazol-1-yl)-1-(5-(4-(2,2,2-trifluoroethoxy)phenyl)pyridin-2-yl)propan-2-ol]"
4,< 0.5 µg/mL,"N#Cc1ccc(-c2ccc(C(F)(F)C(O)(Cn3cnnn3)c3ccc(F)cc3F)nc2)cc1 (stereo not shown) [Example 1, 4-(6-(2-(2,4-Difluorophenyl)-1,1-difluoro-2-hydroxy-3-(1H-tetrazol-1-yl)propyl)pyridin-3-yl)benzonitrile]"
5,< 0.5 µg/mL,"CC(F)(c1ccc(-c2ccc(OC(F)(F)F)cc2)cn1)C(O)(Cn1cnnn1)c1ccc(F)cc1F (stereo not shown) [Example 46, 2-(2,4-Difluorophenyl)-3-fluoro-1-(1H-tetrazol-1-yl)-3-(5-(4-(trifluoromethoxy)phenyl)-pyridin-2-yl)butan-2-ol]"
6,0.5 to 1.5 µg/mL,"OC(Cn1cnnn1)(c1ccc(F)cc1F)C(F)(F)c1ccc(-c2cccc(OC(F)F)c2)cn1 (stereo not shown) [Example 26, 1-(5-(3-(Difluoromethoxy)phenyl)pyridin-2-yl)-2-(2,4-difluorophenyl)-1,1-difluoro-3-(1H-tetrazol-1-yl)propan-2-ol]"
7,< 0.5 µg/mL,"O=C(Nc1ccc(-c2ccc(C(F)(F)C(O)(Cn3cnnn3)c3ccc(F)cc3F)nc2)cc1)C(F)(F)F (stereo not shown) [Example 37, N-(4-(6-(2-(2,4-Difluorophenyl)-1,1-difluoro-2-hydroxy-3-(1H-tetrazol-1-yl)propyl)pyridin-3-yl)phenyl)-2,2,2-trifluoroacetamide]"
8,< 0.5 µg/mL,"OC(Cn1cnnn1)(c1ccc(F)cc1F)C(F)(F)c1ccc(-c2ccccc2)cn1 (stereo not shown) [Example 35, 2-(2,4-Difluorophenyl)-1,1-difluoro-1-(5-phenylpyridin-2-yl)-3-(1H-tetrazol-1-yl)propan-2-ol]"
